Measurements: paper PMC5354814, “In silico and in vitro drug screening identifies new therapeutic approaches for Ewing sarcoma” (Oncotarget, 2016)
Where two headings read alike, the source gives them in different places.

Tests used:
CHLA-258 = assay: Hits validation, dose-response cell proliferation (CellTiter-Glo); type: cell-based; conditions: 12-point dose-response 50 μmol/L to 1 nmol/L, mean ± SD
Outline: (§1)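 Read-out is CellTiter-Glo luminescence, from which IC50 values were calculated for each drug. Wells held 750–1,500 cells plated the day before treatment, with drug concentrations spanning 1 nmol/L to 50 μmol/L and vehicle controls included.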

Hs 863.T. = assay: as above; type: cell-based; conditions: control cell line, 12-point dose-response, mean ± SD
Outline: as §1

A673 = assay: as above; type: cell-based; conditions: 12-point dose-response 50 μmol/L to 1 nmol/L, mean ± SD
Outline: as §1

Hs 822.T. = assay: as above; type: cell-based; conditions: control cell line, 12-point dose-response, mean ± SD
Outline: as §1

RD-ES = assay: as above; type: cell-based; conditions: 12-point dose-response 50 μmol/L to 1 nmol/L, mean ± SD
Outline: as §1

COG-E-352 = assay: as above; type: cell-based; conditions: 12-point dose-response 50 μmol/L to 1 nmol/L, mean ± SD
Outline: as §1

TC-71 = assay: as above; type: cell-based; conditions: 12-point dose-response 50 μmol/L to 1 nmol/L, mean ± SD
Outline: as §1

SK-ES-1 = assay: as above; type: cell-based; conditions: 12-point dose-response 50 μmol/L to 1 nmol/L, mean ± SD
Outline: as §1

[1] = cited from earlier work
A673 cells = assay: siRNA silencing of EWS-FLI1 followed by auranofin treatment (CellTiter-Blue); type: cell-based; conditions: then auranofin 72 h
Method: To knock down the expression of EWS-FLI1 in A673 Ewing cells, we designed two different siRNAs, corresponding to the sequence within the 3′ downstream half of EWS-FLI1 mRNA (siFLI1-#3) and the sequence of the breakpoint of EWS-FLI1 type I mRNA (siBPEF1) respectively. To examine whether the siRNAs could abolish the expression of EWS-FLI1, the effects of siRNAs on the protein levels of EWS-FLI1 were analyzed by western blot (see Supplementary methods).
(B) Cell viability was assessed by the CellTiter Blue assay in A673 cells treated by siControl, siFLI1-#3 or siBPEF1 for 48 h then followed by the incubation of auranofin ranging from 7.8 nmol/L to 1 μmol/L for 72h. Data are presented as the mean ± SD of three independent experiments performed in triplicate. (C) In vivo studies of auranofin, ganetespib and the combination treatment in an EWS xenograft mice model (n = 12 per group). The percentage of survival rate in control, auranofin treated, ganetespib treated, and auranofin in combination with ganetespib treated groups.
Predict drugs using three computational resolved on the 4–20% Mini-PROTEAN TGXTM approaches Precast Gels (Bio-Rad, Hercules, CA) and transferred onto PVDF membranes (Bio-Rad, Hercules, CA).
Disease-based approach: We used the disease Immunoblotting was done with the following antibodies: signature to query the drug expression database and rabbit polyclonal anti-FLI1 (C-19) (Santa Cruz selected the top 20 negatively scored hits. siRNA-based Biotechnology, Dallas, TX), mouse monoclonal anti-approach: We used the siEWS-FLI1 mediated signature β-actin (Sigma, St. Louis, MO), HRP conjugated goat to query the drug expression database and selected the top anti-rabbit IgG (Cell Signaling, Danvers, MA) and 20 positively scored hits. […] Membranes were developed using ECL database and select the top 20 negatively scored hits. […]
(Lafayette, CO). […] After 72 h of auranofin treatment, cell viability was evaluated using the 18. […]

## CC(=O)OC[C@H]1O[C@@H]([S-])[C@H](OC(C)=O)[C@@H](OC(C)=O)[C@@H]1OC(C)=O.CCP(CC)CC.[Au+] [Auranofin, auranofin]
CHLA-258
  IC50: 0.38 ± 0.19 µM
Hs 863.T.
  IC50: 3.25 ± 0.12 µM
A673
  IC50: 0.33 ± 0.22 µM
Hs 822.T.
  IC50: 1.45 ± 0.09 µM
RD-ES
  IC50: 2.45 ± 0.52 µM
COG-E-352
  IC50: 0.82 ± 0.19 µM
TC-71
  IC50: 0.26 ± 0.14 µM
SK-ES-1
  IC50: 0.08 µM
[1]; Rat CD, F, PO
  LD50: 330 mg/kg
[1]; adult rats
  acute oral LD50: 265 mg/kg
[1]; rats
  minimum lethal dose: 30 mg/kg
[1]; warfarin at usual human daily dose, clonidine, propoxyphene at five times, others at ten or twenty times
  lethality (LD50) in rats when given concomitantly with other drugs: potentiated
A673 cells; siBPEF1 48 h, read-out: IC50 (siBPEF1)
  IC50: > 1 µM
A673 cells; siControl 48 h, read-out: IC50 (siControl)
  IC50: 0.27 ± 0.02 µM
A673 cells; siFLI1-#3 48 h, read-out: IC50 (siFLI1-#3)
  IC50: > 1 µM
